As usually defined, the IC50 is the concentration needed to halve the response being measured. Read a high IC50 as weaker potency.

Structures can show the parent of a compound that is named as a salt.

One data set has as its system lucMiaPaCa-2 cells. Put plainly: Monolayer cell culture viability assay (CellTiter-Glo), normoxic or hypoxic, lucMiaPaCa-2. It is filed as cell-based. The note with it: Homo sapiens; normoxic, 72 hrs. exposure; barely achieved. As for the experimental part: (§1) Two human pancreatic adenocarcinoma cell lines, lucMiaPaCa-2 (stably transfected with the luciferase-aminoglycoside phosphotransferase fusion gene, kindly provided by Dr. Phuoc T. Tran) and Suit-2 (kindly provided by Dr. Shinichi Ota, Japan) were cultured in RPMI or MEM media, respectively, both supplemented with 10% FBS and 1% Penicillin-Streptomycin. The effects of different drugs on cell viability were determined by quantifying intracellular adenosine triphosphate (ATP) levels using a luminescence-based kit (CellTiter-Glo, Promega) and a multilable 96-well plate (Costar). The accuracy and reproducibility of viability measurements using this luminiscence-based kit in lucMiaPaCa-2 cells was confirmed using the Dual-Reporter assay kit (Promega). In brief, 5×10^3 cells were seeded in triplicate and incubated for 72 hrs. under normoxic or hypoxic (1% O2-level, balanced with CO2 and nitrogen within a controlled atmosphere chamber) conditions. Indicated amounts of free 3-BrPA, 1:1-β-CD-3-BrPA or β-CD as a control were dissolved in PBS and added to the medium for 24 hrs. of treatment. For the experiments with gemcitabine, cells were incubated for 24 hrs. prior to a 72 hrs. exposure to the drug. Cell viability was determined following the manufacturer's protocol.
In general terms: ATP-based viability assays read luminescence as a measure of living cells.

The subject of data set [1] is orthotopic MiaPaCa-2 tumors. The experiment in a line: Orthotopic lucMiaPaCa-2 xenograft, systemic treatment with BLI follow-up, survival and necropsy (Example 6). Format: in vivo, mice. As for the experimental part: Male athymic nude mice (body weight, 20-25 g; 4 weeks old; Crl:NU (NCr)-Fox1^nu; Charles River Laboratory, Germantown, Md., USA) were used in accordance with institutional guidelines under approved Animal Care and Use Committee protocols. Mice were maintained in laminar flow rooms at constant temperature and humidity with food and water given ad libitum. Orthotopic xenograft tumors were generated by implantation of 1.5×10^6 lucMiaPaCa-2, suspended in 50 μl PBS, into the tail of the pancreas in anesthetized mice. To accomplish this, mice were placed into a clean anesthesia induction chamber (oxygen flow rate, 1 liter/minute; isoflurane concentration of 3-4%). Upon loss of the righting reflex, animals were placed on the surgical procedure surface, where a nose cone was used to maintain anesthesia (oxygen flow, 0.8 liters/minute; Isoflurane concentration, 1.5-2%). A small, left abdominal flank incision was made, and the pancreas was exteriorized to inject the cell solution using a 30 G Hamilton syringe. A successful subcapsular intrapancreatic injection was identified by the appearance of a fluid bleb without intraperitoneal leakage. The abdominal cavity was closed with a double-layer of non-absorbable suture material (Kim et al. (2009) Nat. Protocol. 4:1670-1680).
Tumor viability was confirmed via in vivo bioluminescence imaging (BLI) on day 7 after the surgical implantation. Anesthetized tumor-bearing mice were injected intraperitoneally with D-luciferin 150 mg/kg and optically imaged 5 minutes later using the IVIS 200 system (Xenogen). The pseudocolor image representing the spatial distribution of photons was overlaid on a previously acquired grayscale photographic image. A region of interest (ROI) was created to include the optical tumor image. Signal intensity was quantified within the ROI in photons/second/squared centimeter/steradian (p/s/cm2/Sr) after a 10-second exposure using Living Image software (Xenogen). Additionally, orthotopic growth of the tumors was confirmed prior to treatment using small-animal ultrasound imaging (USI). In brief, anesthetized mice were subjected to examination using the VEVO2100 (Visual Sonics Inc., Toronto, Canada, kindly provided by Dr. Harry C. Dietz) by applying a MS-550D MicroScan transducer probe with 40 MHz (broadband with 22-55 MHz). Tumor localization was confirmed using the cranial tip of the left kidney and the caudal tip of the spleen as anatomic landmarks (Ota et al. (2013) Target. Oncol. 8:145-151; Tuli et al. (2012) Translat. Oncol. 5:77-84). […]

The subject of data set [2] is Suit-2 cells. Put plainly: Monolayer cell culture viability assay (CellTiter-Glo), Suit-2. Format: cell-based. The settings on record: Homo sapiens, normoxic, 72 hrs. exposure, barely achieved. The protocol:
as §1

In data set [3] the test system is subcutaneous pancreatic cancer xenografts. The note with it: 5 mg/kg, twice per week, systemic; cited from earlier work.
A further data set concerns MiaPaCa-2 cells. The experiment in a line: Matrigel invasion assay, MiaPaCa-2. It is filed as cell-based, human. The settings on record: sub-lethal concentrations, 48 hrs. As for the experimental part:
(§2) The ability of 3-BrPA to inhibit tumor invasion was studied using a matrigel invasion assay, as well as gelatin zymography (Hu and Beeton (2010) J. Visual. Exp. 45:2445; Scott et al. (2011) J. Visual. Exp. 58:e3525). For the matrigel invasion assays, a coating buffer containing 0.01 M Tris and 0.7% sodium chloride was prepared and used to dilute the matrigel basement membrane (BD Biosciences, #356234) to 300 ug/ml. Subsequently, Boyden chambers (Transwell, Corning; 6.5 mm-diameter, 8 um pore size) were coated with 100 μl matrigel solution and stored at 37° C. for 2 hrs. to allow for gelatination. Approximately 7.5×10^4 cells were resuspended in 500 μl FBS-free medium and plated into the upper chamber of the insert, which was then placed into a 24-well plate containing […] FBS-containing medium. After overnight incubation at 37° C., various amounts of 3-BrPA dissolved in PBS were added to the upper chamber. Fourty-eight hours later, non-invasive cells were removed from the matrigel with a cotton swab. Invaded cells adherent to the bottom side of the permeable insert were fixed and stained with the Diff Quik Stain Kit (Polysciences Inc.). […] Invasion of cells was quantified by measuring the area of stained cells after treatment compared to untreated samples at 10× magnification.

The conditions of data set [4]: in vivo, after systemic administration; cited from earlier work.
Data set [5] relates to Suit-2 cells. Put plainly: Matrigel invasion assay, Suit-2. The settings on record: sub-lethal concentrations, 72 hrs. It is filed as cell-based, human. As for the experimental part:
as §2

Data set [6] deals with matrix-metalloproteinase 9 (MMP-9). The experiment in a line: MMP-9 secretion by gelatin zymography and immunoblotting, MiaPaCa-2. It is filed as cell-based, human. The settings on record: 24 hrs., dose that did not induce apoptosis or reduce cell viability. As for the experimental part: (§3) Zymography assays were performed to determine the activity of secreted MMP-9. Accordingly, 4×10^6 Suit-2 cells and 2.5×10^6 lucMiaPaCa-2 cells were seeded in 75 cm^2-flasks and incubated overnight at 37° C. under normoxic conditions. The following day, fresh FBS-free medium containing different concentrations of 3-BrPA was added and cells were incubated for an additional 24 hrs. Subsequently, supernatants were collected, filtered, and the final protein concentrations were determined using the 2D Quant Kit (GE Healthcare). After adjustment for concentration, each sample was loaded onto two 10% gelatin zymography gels (Novex, Invitrogen). Following electrophoresis, proteins in one of the two gels were renaturated and enzymatic digestion was allowed overnight at 37° C. in a developing buffer. The gel was stained with 4 parts 0.1% Coomassie Brilliant Blue in 1 part 100% methanol for 24 hrs. and washed with distilled (DI) water until digested areas were detectable as white bands. Western Blot analysis was performed using the duplicate gel. Proteins were blotted onto a PVDF-Membrane and blocked using 5% skimmed milk in 1×TBS and 0.1% Tween in DI (TBST). […] The HRP provided an […] signal (ECL Kit, GE Healthcare), which was analyzed with ImageJ 1.46r software (Wayne Rasband, National Institute of Health) and used to quantify signal intensity by comparing line integrals.
In general terms: Immunoblotting shows a protein as a band on a membrane.

Data set [7] can be described thus: Comparative dose escalation studies in non-tumor-bearing animals. Format: in vivo, mice. The note with it: after a single injection. The protocol: The anti-cancer efficacy of systemically delivered β-CD-3-BrPA was tested using a xenograft model of human pancreatic cancer in athymic nude mice. Prior to choosing the therapeutic dose for more detailed studies, comparative dose escalation studies in non-tumor-bearing animals were performed for both β-CD-3-BrPA and free 3-BrPA. […] animals with orthotopically-implanted and BLI- and USI-confirmed MiaPaCa-2 tumors were then randomized to receive intraperitoneal (i.p.) injections of β-CD-3-BrPA (N=21), gemcitabine (N=7), or β-CD (N=7). An additional group of animals with orthotopic implants (N=7) was treated with free 3-BrPA. […] At the end of the experiment (Day 28), only 2/7 animals (28%) treated with the free drug were still alive (FIG. 12, Panel C). […] After four weeks of treatment, a comparison of BLI signal intensity between the groups was performed. […] After achieving this endpoint, animals were sacrificed and tumors were harvested for further analysis. All animals were subjected to necropsies and organs (brain, heart, lungs, bowel, liver, and kidneys) were harvested for the analysis of potential tissue damage.

Data set [8] has as its system matrix-metalloproteinase 9 (MMP-9). Put plainly: MMP-9 secretion by gelatin zymography and immunoblotting, Suit-2. The note with it: 24 hrs., dose that did not induce apoptosis or reduce cell viability. Format: cell-based, human. The protocol: as §3

In the case of `Nc1ccn([C@@H]2O[C@H](CO)[C@@H](O)C2(F)F)c(=O)n1` [gemcitabine, gemcitabine hydrochloride salt], the half-inhibitory concentration (IC50) in the data set on lucMiaPaCa-2 cells and in the data set with Suit-2 cells [2] was 100 nM throughout. In addition, the “BLI signal increase as compared to baseline” value in [1] (after four weeks of treatment) was found to be 60 fold.

As for `O=C(O)C(=O)CBr` [3-BrPA, 3-bromopyruvate], the “efficacy of 3-BrPA alone” value in [3] is “did not report any significant efficacy”. In addition, the “drug concentration showing a reduction in invasion (as low as)” value with MiaPaCa-2 cells and in the data set on Suit-2 cells [5] was 12.5 µM throughout. The “animals died before the acquisition of the first follow-up BLI” value in data set [1] (daily i.p. 5 mg/kg in 500 μl saline) is 3/7. Also, the “loss of animals at the end of the experiment (treatment-related toxicity, Kaplan-Meier)” value in data set [1] (daily i.p. 5 mg/kg, 28 days) is 5/7. Moreover, in data set [1] (daily i.p. 5 mg/kg, Day 28), the “animals still alive at the end of the experiment” value is 2/7. Further, in data set [4], the “time of inactivation through interaction with serum proteins (as early as)” value is 2 to 3 min. In addition, the “concentration at which marked reduction in the secretion of MMP-9 begins” value in data set [6] and in data set [8] was 6.25 µM throughout. In addition, the “median lethal dose (LD50)” value in data set [7] turned out to be 10 mg/kg.

The values above are taken from patent publication US9737487B2, “Cyclodextrin compositions encapsulating a selective ATP inhibitor and uses thereof” (The Johns Hopkins University, priority 2014, dated 2017).
